Values quoted from earlier work in patent publication US20090181086A1 (priority 2008, published 2009).
Like-named read-outs stand apart in the source and are kept apart here.

Assays:
CYP1A2 = CYP1A2 (Homo sapiens, UniProt P05177); conditions: in vitro
platelet MAO-B = platelet MAO-B (Homo sapiens, UniProt P27338)
human albumin = human albumin (Homo sapiens, UniProt P02768); conditions: concentration range of 1-100 ng/mL
[1] = test system: monoamine oxidase type B (MAO-B); conditions: ex vivo, brain, liver and intestinal tissues
[2] = oral 14C-labeled rasagiline, over 7 days

platelet MAO-B, sequence (P27338 whole entry): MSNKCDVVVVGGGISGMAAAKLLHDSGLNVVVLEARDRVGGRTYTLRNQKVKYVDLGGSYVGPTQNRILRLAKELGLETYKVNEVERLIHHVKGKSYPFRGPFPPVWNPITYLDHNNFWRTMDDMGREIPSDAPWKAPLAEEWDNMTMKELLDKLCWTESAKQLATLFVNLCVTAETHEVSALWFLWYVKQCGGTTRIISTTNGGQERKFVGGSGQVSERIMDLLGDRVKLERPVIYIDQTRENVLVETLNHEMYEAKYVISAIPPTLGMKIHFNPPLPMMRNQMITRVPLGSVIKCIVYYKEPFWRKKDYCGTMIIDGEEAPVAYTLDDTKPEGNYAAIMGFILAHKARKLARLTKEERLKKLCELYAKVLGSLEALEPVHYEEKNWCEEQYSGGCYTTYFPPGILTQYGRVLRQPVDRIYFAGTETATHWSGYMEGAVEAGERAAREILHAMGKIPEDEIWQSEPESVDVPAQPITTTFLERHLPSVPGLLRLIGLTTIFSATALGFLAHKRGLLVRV
human albumin, sequence (P02768 25-609): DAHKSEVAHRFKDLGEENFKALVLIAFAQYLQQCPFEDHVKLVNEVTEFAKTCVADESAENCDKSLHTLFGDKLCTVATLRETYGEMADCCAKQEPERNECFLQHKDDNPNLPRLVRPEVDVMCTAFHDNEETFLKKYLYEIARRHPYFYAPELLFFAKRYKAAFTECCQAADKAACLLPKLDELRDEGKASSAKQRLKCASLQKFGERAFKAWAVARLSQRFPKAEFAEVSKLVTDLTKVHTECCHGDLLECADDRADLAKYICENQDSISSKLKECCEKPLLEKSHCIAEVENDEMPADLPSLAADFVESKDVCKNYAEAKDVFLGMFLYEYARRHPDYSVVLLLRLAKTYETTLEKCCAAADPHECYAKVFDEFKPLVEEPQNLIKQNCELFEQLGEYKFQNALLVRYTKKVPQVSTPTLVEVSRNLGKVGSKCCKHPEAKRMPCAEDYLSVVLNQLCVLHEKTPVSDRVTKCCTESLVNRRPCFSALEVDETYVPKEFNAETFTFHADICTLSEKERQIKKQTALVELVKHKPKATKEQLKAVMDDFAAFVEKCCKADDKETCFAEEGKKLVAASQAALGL
CYP1A2, sequence (P05177 whole entry, species assumed): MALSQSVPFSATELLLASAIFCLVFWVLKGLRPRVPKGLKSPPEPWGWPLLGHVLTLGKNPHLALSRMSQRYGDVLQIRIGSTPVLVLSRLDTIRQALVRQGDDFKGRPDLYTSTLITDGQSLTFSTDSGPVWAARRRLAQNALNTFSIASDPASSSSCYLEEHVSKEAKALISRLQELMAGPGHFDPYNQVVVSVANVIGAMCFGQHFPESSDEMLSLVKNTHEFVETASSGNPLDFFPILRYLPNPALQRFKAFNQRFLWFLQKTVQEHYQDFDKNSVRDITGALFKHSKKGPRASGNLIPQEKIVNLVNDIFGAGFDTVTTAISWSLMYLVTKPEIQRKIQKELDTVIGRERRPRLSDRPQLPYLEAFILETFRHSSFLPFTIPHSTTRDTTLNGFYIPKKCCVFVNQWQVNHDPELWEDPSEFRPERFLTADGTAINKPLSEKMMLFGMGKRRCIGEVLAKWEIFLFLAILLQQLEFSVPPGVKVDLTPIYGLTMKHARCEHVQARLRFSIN

Compound: C#CCN[C@@H]1CCc2ccccc21 [rasagiline, R(+)-N-propargyl-1-aminoindan]
- Plasma protein binding (plasma protein): 88-94%
- isoenzyme involved in rasagiline metabolism, in words (CYP1A2): CYP1A2 being the major isoenzyme involved
- pharmacokinetics versus dose, in words (doses over the range of 1-10 mg): linear
- absolute bioavailability (human, in vivo): about 36%
- effect of food on Tmax, in words (human, in vivo): does not affect
- excreted as unchanged drug in urine (human, in vivo): Less than 1%
- mean steady-state half life (human, in vivo): 3 h
- mean volume of distribution at steady-state (human, in vivo): 87 L
- elimination via feces [2]: 7 % of total dose
- elimination via urine [2]: 62 % of total dose
- total calculated recovery (oral 14C-labeled rasagiline, over a period of 38 days): 84 % of the dose
- decrease of Cmax (taken with a high fat meal): approximately 60%
- decrease of exposure (AUC) (taken with a high fat meal): ~20%
- MAO-B inhibition (platelet MAO-B; 3 days after daily dosing at 2 mg/day, maintained 3 days post-dose): Over 90%
- MAO-B inhibition (platelet MAO-B; after a single rasagiline dose of 1 mg/day): 25-35%
- MAO-B inhibition (platelet MAO-B; after a single rasagiline dose of 2 mg/day): more than 55%
- duration of platelet MAO-B inhibition after last dose (platelet MAO-B; human, in vivo): at least 1 week
- MAO-B inhibition, in words (platelet MAO-B; multiple doses of 0.5, 1 and 2 mg per day): complete MAO-B inhibition
- MAO-B inhibition in platelets, in words (platelet MAO-B; recommended therapeutic dose): potent and irreversible inhibitor of MAO-B
- mean extent of binding to human albumin (human albumin): 61-63%
- MAO-B inhibition, in words [1]: potent, irreversible monoamine oxidase type B (MAO-B) selective inhibitor
